Assay results reported in the supplement of paper PMC10627819.

Key:
S. aureus DSM 20231 = assay: fitness (endpoint OD595 vs no drug) (fraction); higher = more growth
Procedure, shortened: (§1)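 Bacterial growth was followed in 384-well plates seeded at OD595 0.01, with 30 µl per well, or 55 µl for S. pneumoniae, in TSB, LB Lennox or CY at 37 °C. OD595 was read every 30 min for 14 h, and each reading had the first reading subtracted as background. Fitness is the background-corrected optical density at entry into stationary phase divided by the robust mean of the no-drug control wells. This ratio is capped at 1.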

S. pneumoniae D39V = assay: as above
Procedure, shortened: as §1

CC(=O)Oc1ccccc1C(=O)O [Acetylsalicylic acid] + CCN(CC)CCOC(=O)c1ccc(N)cc1 [Procaine]
fitness
Settings | partner 85.5 µg/mL | partner 171 µg/mL | partner 342 µg/mL
S. aureus DSM 20231, first compound 250 µg/mL | 0.916 | 0.971 | 0.963
S. aureus DSM 20231, first compound 500 µg/mL | 0.849 | 0.896 | –
S. pneumoniae D39V, first compound 250 µg/mL | ≥ 1 | 0.989 | 0.966
S. pneumoniae D39V, first compound 500 µg/mL | ≥ 1 | 0.995 | 0.97
S. pneumoniae D39V, first compound 1000 µg/mL | 0.922 | 0.86 | 0.89

CC(=O)Oc1ccccc1C(=O)O [Acetylsalicylic acid] + CC(=O)NC[C@H]1CN(c2ccc(N3CCOCC3)c(F)c2)C(=O)O1 [Linezolid]
fitness
Settings | first compound 250 µg/mL | first compound 500 µg/mL | first compound 1000 µg/mL
S. aureus DSM 20231, partner 0.125 µg/mL | 0.868 | – | 0.509
S. aureus DSM 20231, partner 0.25 µg/mL | 0.582 | 0.486 | 0.275
S. aureus DSM 20231, partner 0.5 µg/mL | 0.203 | 0.159 | 0.117
S. pneumoniae D39V, partner 0.105 µg/mL | 0.879 | 0.866 | 0.776
S. pneumoniae D39V, partner 0.2 µg/mL | 0.675 | 0.623 | 0.463
S. pneumoniae D39V, partner 0.21 µg/mL | 0.756 | 0.773 | 0.712
S. pneumoniae D39V, partner 0.4 µg/mL | 0.598 | 0.582 | 0.439
S. pneumoniae D39V, partner 0.42 µg/mL | 0.573 | 0.561 | 0.442
S. pneumoniae D39V, partner 0.8 µg/mL | 0.252 | 0.24 | 0.208

S. aureus DSM 20231, partner 1 µg/mL, one replicate
Settings | fitness
first compound 250 µg/mL | 0.0592
first compound 500 µg/mL | 0.0468
first compound 1000 µg/mL | 0.0354

CC(=O)Oc1ccccc1C(=O)O [Acetylsalicylic acid] + CO/N=C(\C(=O)N[C@@H]1C(=O)N2C(C(=O)O)=C(COC(C)=O)CS[C@H]12)c1csc(N)n1 [Cefotaxime]
fitness
Settings | partner 0.0018 µg/mL | partner 0.0035 µg/mL | partner 0.007 µg/mL | partner 0.039 µg/mL | partner 0.078 µg/mL | partner 0.156 µg/mL | partner 0.312 µg/mL
S. aureus DSM 20231, first compound 250 µg/mL | – | – | – | 0.706 | 0.695 | 0.641 | 0.605
S. aureus DSM 20231, first compound 500 µg/mL | – | – | – | 0.614 | 0.608 | 0.561 | 0.507
S. aureus DSM 20231, first compound 1000 µg/mL | – | – | – | 0.509 | 0.443 | 0.343 | 0.148
S. pneumoniae D39V, first compound 250 µg/mL | 0.984 | 0.967 | 0.936 | – | – | – | –
S. pneumoniae D39V, first compound 500 µg/mL | ≥ 1 | 0.992 | 0.962 | – | – | – | –
S. pneumoniae D39V, first compound 1000 µg/mL | 0.97 | 0.89 | 0.823 | – | – | – | –

CC(=O)Oc1ccccc1C(=O)O [Acetylsalicylic acid] + CCCCCCCCCC(=O)N[C@@H]1[C@H]([C@@H]([C@H](O[C@H]1OC2=C3C=C4C=C2OC5=C(C=C(C=C5)[C@H]([C@H]6C(=O)N[C@@H](C7=C(C(=CC(=C7)O)OC8[C@H]([C@H]([C@@H]([C@H](O8)CO)O)O)O)C9=C(C=CC(=C9)[C@H](C(=O)N6)NC(=O)[C@@H]4NC(=O)[C@@H]1C2=CC(=CC(=C2)OC2=C(C=CC(=C2)[C@H](C(=O)N[C@H](CC2=CC(=C(O3)C=C2)Cl)C(=O)N1)N)O)O)O)C(=O)O)O[C@H]1[C@@H]([C@H]([C@@H]([C@H](O1)CO)O)O)NC(=O)C)Cl)CO)O)O [Teicoplanin]
fitness, S. aureus DSM 20231, main component drawn
Settings | partner 0.1562 µg/mL | partner 0.3125 µg/mL | partner 0.625 µg/mL
first compound 250 µg/mL | 0.957 | 0.98 | 0.979
first compound 500 µg/mL | 0.887 | 0.894 | 0.871
